The values below come from patent US6444617B1, “Fused-heterocycle dicarboxylic acid diamide derivatives or salts thereof, herbicide and usage thereof” (Nihon Nohyaku Co., Ltd., priority 1998, dated 2002).

Holding throughout (type): in vivo
Series [1] deals with monochoria (Monochoria vaginalis Presl). Briefly: Test Example 2: herbicidal effect on paddy field weeds after emergence. The following applies: Dosage 5 kg/ha; one-leaved stage; 21 days after treatment. How it is done: (§1) Test for Herbicidal Effect on Paddy Field Weeds After Emergence. Soil was filled into 1/10000 are pots and brought into a state of paddy field, in which seeds of barnyard grass (Echinochloa crus-galli Beauv.), bulrush (Scirpus juncoides Roxb.) and monochoria (Monochoria vaginalis Presl) were made to reach one-leaved stage. The soil in the pots were treated with a solution containing a predetermined dosage of a chemical agent comprising a compound of the present invention listed in Tables 1 to 14. Twenty one days after the treatment, the herbicidal effect was investigated and the result was compared with that in untreated plot to calculate the weed-controlling rate, and the herbicidal effect was judged according to the same criterion as in Test Example 1.

In series [2] the test system is bulrush (Scirpus juncoides Roxb.). The description is as above. The following applies: Dosage 5 kg/ha; one-leaved stage; 21 days after treatment. How it is done:
as §1

Series [3] deals with barnyard grass (Echinochloa crus-galli Beauv.). The description is as above. As to conditions: Dosage 5 kg/ha; one-leaved stage; 21 days after treatment. The procedure:
as §1

In series [4] the test system is cleavers (Galium aparine L.), Ga. Briefly: Test Example 4: herbicidal effect on upland weeds after emergence. The following applies: dosage 5 kg/ha; sprayed after emergence; judged 14 days after treatment. The text has this: (§2) Herbicidal Effect on Upland Weeds After Emergence Polyethylene-made vats having a size of 10 cm (length)×20 cm (width)×5 cm (height) were filled with soil, sown with seeds of the following noxious upland weeds and with seeds of soybean plant and wheat as upland crop plants, and then covered with soil. The plants were made to grow up until they reached the leaf-stages mentioned below, after which an agent comprising a prescribed concentration of a compound of the present invention (listed in Tables 1 to 14) as active ingredient was sprayed. Fourteen days after the treatment, the herbicidal effect was investigated, from which weed-killing rate was calculated in the same manner as in Test Example 1 and the results were judged. […] Sample weeds, their leaf stages, and leaf stages of soybean plant and wheat were as follows: [table]

Series [5] concerns cocklebur (Xanthium strumarium L.), Xs. The series is described as above. The following applies: dosage 5 kg/ha; sprayed after emergence; judged 14 days after treatment.
Excerpt: as §2

The test system of series [6] is forxtail grass (Alopecurus aequalis var. amurensis Ohwi), Am. The description is as above. The following applies: dosage 5 kg/ha; sprayed after emergence; judged 14 days after treatment.
Excerpt: as §2

The subject of series [7] is velvetleaf (Abutilon theophtasti L.), At. Described as above. As to conditions: dosage 5 kg/ha; sprayed after emergence; judged 14 days after treatment.
Excerpt: as §2

Series [8] deals with barnyard grass (Echinochloa crus-galli Beauv.), Ec. The series is described as above. As to conditions: dosage 5 kg/ha; sprayed after emergence; judged 14 days after treatment.
Excerpt: as §2

The test system of series [9] is bird's eye speedwell (Veronica persica Poir.), Vp. The series is described as above. As to conditions: dosage 5 kg/ha; sprayed after emergence; judged 14 days after treatment.
Excerpt: as §2

For series [10], the system named is soybean plant (So). As to the kind of experiment: Test Example 3: phytotoxicity to upland crop plants, treatment before emergence. The following applies: dosage 5 kg/ha. How it is done: (§3) Herbicidal Effect on Upland Weeds Before Emergence […] Then, a liquid preparation of an agent comprising a prescribed concentration of a compound of the present invention (the compounds listed in Tables 1-14) as active ingredient was sprayed. Fourteen days after the treatment, the herbicidal effect was investigated, from which weed-killing rate was calculated in the same manner as in Test Example 1, and the herbicidal effect was judged. At the same time, phytotoxicity to soybean plant and wheat was investigated and judged according to the criterion mentioned below.

The subject of series [11] is wheat (Wh). The series is described as above. The following applies: dosage 5 kg/ha. How it is done:
as §3

In series [12] the test system is cleavers (Galium aparine L.), Ga. Briefly: Test Example 3: herbicidal effect on upland weeds before emergence. The following applies: dosage 5 kg/ha. How it is done:
(§4) Herbicidal Effect on Upland Weeds Before Emergence […] Then, a liquid preparation of an agent comprising a prescribed concentration of a compound of the present invention (the compounds listed in Tables 1-14) as active ingredient was sprayed. Fourteen days after the treatment, the herbicidal effect was investigated, from which weed-killing rate was calculated in the same manner as in Test Example 1, and the herbicidal effect was judged.

Series [13] relates to cocklebur (Xanthium strumarium L.), Xs. The series is described as above. As to conditions: dosage 5 kg/ha. The procedure: as §4
For series [14], the system named is forxtail grass (Alopecurus aequalis var. amurensis Ohwi), Am. The series is described as above. The following applies: foxtail grass, dosage 5 kg/ha. The procedure:
as §4

The subject of series [15] is velvetleaf (Abutilon theophtasti L.), At. Described as above. The following applies: dosage 5 kg/ha. The procedure: as §4
Series [16] deals with barnyard grass (Echinochloa crus-galli Beauv.), Ec. Described as above. As to conditions: dosage 5 kg/ha. How it is done: as §4
The subject of series [17] is bird's eye speedwell (Veronica persica Poir.), Vp. Described as above. The following applies: dosage 5 kg/ha. How it is done:
as §4

Series [18] has as its system wheat. Briefly: Test Example 4: phytotoxicity to upland crop plants, treatment after emergence. As to conditions: dosage 5 kg/ha, sprayed after emergence, judged 14 days after treatment.
Excerpt: as §2

For series [19], the system named is soybean plant. The series is described as above. The following applies: dosage 5 kg/ha, sprayed after emergence, judged 14 days after treatment.
Excerpt: as §2

The test system of series [20] is bulrush (Scirpus juncoides Roxb.). As to the kind of experiment: Test Example 1: herbicidal effect on paddy field weeds before emergence. The following applies: Dosage 5 kg/ha. The procedure:
as §1, with “Before Emergence” for “After Emergence.”, “Beauv.) and” for “Beauv.),”, “Roxb.)” for “Roxb.) and monochoria (Monochoria vaginalis Presl)”, “be before germination.” for “reach one-leaved stage.”, “investigated,” for “investigated and”, “following criterion: […]” for “same criterion as in Test Example 1.”

Series [21] deals with barnyard grass (Echinochloa crus-galli Beauv.). The description is as above. The following applies: Dosage 5 kg/ha. How it is done:
as §1, with “Before Emergence” for “After Emergence.”, “Beauv.) and” for “Beauv.),”, “Roxb.)” for “Roxb.) and monochoria (Monochoria vaginalis Presl)”, “be before germination.” for “reach one-leaved stage.”, “investigated,” for “investigated and”, “following criterion: […]” for “same criterion as in Test Example 1.”

Regarding `CCNC(=O)c1nc2ccn(OC)c2cc1C(=O)Nc1c(CC)ccc(Cl)c1CC` [compound 894], the “Post-emergence treatment Monochoria (herbicidal effect)” value (shortened to “Post-emergence treatment Monochoria”) in series [1] is given as 5 (Weed-killing rate is 100%.). In series [2], the “Post-emergence treatment Bulrush (herbicidal effect)” value (“Post-emergence treatment Bulrush” below) is listed as 5 (Weed-killing rate is 100%.). Besides, the “Post-emergence treatment Barnyard grass (herbicidal effect)” value (shortened to “Post-emergence treatment Barnyard grass”) in series [3] is 5 (Weed-killing rate is 100%.). Also, the “Herbicidal effect Ga” value in series [4] and in [12] was 5 (Weed-killing rate is 100%.) each time. The “Herbicidal effect Xs” value in series [5] was 4 (Weed-killing rate is 90-99%.); in series [13], 5 (Weed-killing rate is 100%.). The “Herbicidal effect Am” value in series [6] and in [14] was 5 (Weed-killing rate is 100%.) throughout. For the same molecule, the “Herbicidal effect At” value in series [7] and in [15] was 5 (Weed-killing rate is 100%.) throughout. For the same molecule, the “Herbicidal effect Ec” value in [8] and in series [16] was 5 (Weed-killing rate is 100%.) each time. In addition, the “Herbicidal effect Vp” value in series [9] and in series [17] was 5 (Weed-killing rate is 100%.) each time. For the same molecule, the “Phytotoxicity So” value in series [10] and in [19] was 4 (Crop-killing rate is 90-99%.) each time. Besides, the “Phytotoxicity Wh” value in [11] and in series [18] was 5 (Crop-killing rate is 100%.) throughout. In addition, the “Pre-emergence treatment Bulrush (herbicidal effect)” value (“Pre-emergence treatment Bulrush” below) in series [20] is on record as 5 (Weed-killing rate is 100%.). The “Pre-emergence treatment Barnyard grass (herbicidal effect)” value (from here on “Pre-emergence treatment Barnyard grass”) in series [21] is 5 (Weed-killing rate is 100%.).
As to `CCCNC(=O)c1nc2ccc(O)cc2cc1C(=O)Nc1c(CC)ccc(Cl)c1CC` [compound 276], the “Post-emergence treatment Monochoria” value in series [1] was 5 (Weed-killing rate is 100%.). Further, the “Post-emergence treatment Bulrush” value in series [2] was 4 (Weed-killing rate is 90-99%.). In [3], the “Post-emergence treatment Barnyard grass” value was 3 (Weed-killing rate is 70-89%.). Further, the “Herbicidal effect Ga” value in series [4] and in series [12] was 4 (Weed-killing rate is 90-99%.) throughout. For the same molecule, the “Herbicidal effect Xs” value in [5] and in [13] was 4 (Weed-killing rate is 90-99%.) each time. The “Herbicidal effect Am” value in [6] and in series [14] was 4 (Weed-killing rate is 90-99%.) in each case. In addition, the “Herbicidal effect At” value in [7] and in series [15] was 5 (Weed-killing rate is 100%.) each time. In addition, the “Herbicidal effect Ec” value in series [8] and in [16] was 5 (Weed-killing rate is 100%.) each time. Also, the “Herbicidal effect Vp” value in series [9] and in series [17] was 5 (Weed-killing rate is 100%.) throughout. Moreover, the “Phytotoxicity So” value in [10] was 0 (Crop-killing rate is 0-20% (No Phytotoxicity).); in series [19], 2 (Crop-killing rate is 40-69%.). Further, the “Phytotoxicity Wh” value in [11] is 2 (Crop-killing rate is 40-69%.); in series [18] it was 3 (Crop-killing rate is 70-89%.). The “Pre-emergence treatment Bulrush” value in series [20] is on record as 5 (Weed-killing rate is 100%.). Further, the “Pre-emergence treatment Barnyard grass” value in series [21] was 5 (Weed-killing rate is 100%.).
With `Cc1c(Cl)cccc1NC(=O)c1cc2c(nc1C(=O)NCC(C)C)SCCC2` [compound 527], in [1], the “Post-emergence treatment Monochoria” value was 5 (Weed-killing rate is 100%.). The “Post-emergence treatment Bulrush” value in [2] was 5 (Weed-killing rate is 100%.). In addition, the “Post-emergence treatment Barnyard grass” value in [3] is recorded as 5 (Weed-killing rate is 100%.). The “Herbicidal effect Ga” value in series [4] and in series [12] was 5 (Weed-killing rate is 100%.) each time. Further, the “Herbicidal effect Xs” value in series [5] and in series [13] was 4 (Weed-killing rate is 90-99%.) each time. The “Herbicidal effect Am” value in series [6] and in series [14] was 5 (Weed-killing rate is 100%.) each time. Further, the “Herbicidal effect At” value in series [7] and in series [15] was 5 (Weed-killing rate is 100%.) throughout. The “Herbicidal effect Ec” value in series [8] and in series [16] was 5 (Weed-killing rate is 100%.) each time. In addition, the “Herbicidal effect Vp” value in [9] and in [17] was 5 (Weed-killing rate is 100%.) throughout. The “Phytotoxicity So” value in [10] and in [19] was 5 (Crop-killing rate is 100%.) in each case. Moreover, the “Phytotoxicity Wh” value in [11] and in [18] was 5 (Crop-killing rate is 100%.) each time. Also, the “Pre-emergence treatment Bulrush” value in series [20] is 5 (Weed-killing rate is 100%.). In addition, the “Pre-emergence treatment Barnyard grass” value in series [21] is 5 (Weed-killing rate is 100%.).
Take `CCCNC(=O)c1nc2ccccc2nc1C(=O)Nc1c(CC)ccc(Cl)c1CC` [compound 1306]: the “Post-emergence treatment Monochoria” value in series [1] is listed as 5 (Weed-killing rate is 100%.). Besides, in series [2], the “Post-emergence treatment Bulrush” value is reported as 5 (Weed-killing rate is 100%.). In addition, the “Post-emergence treatment Barnyard grass” value in [3] was 5 (Weed-killing rate is 100%.). In addition, the “Herbicidal effect Ga” value in series [4] and in [12] was 5 (Weed-killing rate is 100%.) each time. Also, the “Herbicidal effect Xs” value in series [5] and in series [13] was 5 (Weed-killing rate is 100%.) throughout. Moreover, the “Herbicidal effect Am” value in series [6] and in [14] was 5 (Weed-killing rate is 100%.) throughout. The “Herbicidal effect At” value in series [7] and in series [15] was 5 (Weed-killing rate is 100%.) throughout. Moreover, the “Herbicidal effect Ec” value in series [8] and in series [16] was 5 (Weed-killing rate is 100%.) in each case. The “Herbicidal effect Vp” value in series [9] and in series [17] was 5 (Weed-killing rate is 100%.) each time. In addition, the “Phytotoxicity So” value in [10] and in series [19] was 5 (Crop-killing rate is 100%.) in each case. For the same molecule, the “Phytotoxicity Wh” value in [11] and in [18] was 5 (Crop-killing rate is 100%.) throughout. Besides, the “Pre-emergence treatment Bulrush” value in series [20] is on record as 5 (Weed-killing rate is 100%.). For the same molecule, the “Pre-emergence treatment Barnyard grass” value in series [21] was 5 (Weed-killing rate is 100%.).
